Experimental findings from US20240109917A1 (ACTELION PHARMACEUTICALS LTD, priority 2020, published 2024) are described below.

In the assay the target is VEGFR2, unphosphorylated (Homo sapiens (Human), UniProt P35968). Kind of assay: VEGFR ADP GLO Assay. It is filed as biochemical. For orientation: ADP-Glo first removes unused ATP, then detects ADP through luciferase.
VEGFR2, unphosphorylated, sequence (P35968 20-1356): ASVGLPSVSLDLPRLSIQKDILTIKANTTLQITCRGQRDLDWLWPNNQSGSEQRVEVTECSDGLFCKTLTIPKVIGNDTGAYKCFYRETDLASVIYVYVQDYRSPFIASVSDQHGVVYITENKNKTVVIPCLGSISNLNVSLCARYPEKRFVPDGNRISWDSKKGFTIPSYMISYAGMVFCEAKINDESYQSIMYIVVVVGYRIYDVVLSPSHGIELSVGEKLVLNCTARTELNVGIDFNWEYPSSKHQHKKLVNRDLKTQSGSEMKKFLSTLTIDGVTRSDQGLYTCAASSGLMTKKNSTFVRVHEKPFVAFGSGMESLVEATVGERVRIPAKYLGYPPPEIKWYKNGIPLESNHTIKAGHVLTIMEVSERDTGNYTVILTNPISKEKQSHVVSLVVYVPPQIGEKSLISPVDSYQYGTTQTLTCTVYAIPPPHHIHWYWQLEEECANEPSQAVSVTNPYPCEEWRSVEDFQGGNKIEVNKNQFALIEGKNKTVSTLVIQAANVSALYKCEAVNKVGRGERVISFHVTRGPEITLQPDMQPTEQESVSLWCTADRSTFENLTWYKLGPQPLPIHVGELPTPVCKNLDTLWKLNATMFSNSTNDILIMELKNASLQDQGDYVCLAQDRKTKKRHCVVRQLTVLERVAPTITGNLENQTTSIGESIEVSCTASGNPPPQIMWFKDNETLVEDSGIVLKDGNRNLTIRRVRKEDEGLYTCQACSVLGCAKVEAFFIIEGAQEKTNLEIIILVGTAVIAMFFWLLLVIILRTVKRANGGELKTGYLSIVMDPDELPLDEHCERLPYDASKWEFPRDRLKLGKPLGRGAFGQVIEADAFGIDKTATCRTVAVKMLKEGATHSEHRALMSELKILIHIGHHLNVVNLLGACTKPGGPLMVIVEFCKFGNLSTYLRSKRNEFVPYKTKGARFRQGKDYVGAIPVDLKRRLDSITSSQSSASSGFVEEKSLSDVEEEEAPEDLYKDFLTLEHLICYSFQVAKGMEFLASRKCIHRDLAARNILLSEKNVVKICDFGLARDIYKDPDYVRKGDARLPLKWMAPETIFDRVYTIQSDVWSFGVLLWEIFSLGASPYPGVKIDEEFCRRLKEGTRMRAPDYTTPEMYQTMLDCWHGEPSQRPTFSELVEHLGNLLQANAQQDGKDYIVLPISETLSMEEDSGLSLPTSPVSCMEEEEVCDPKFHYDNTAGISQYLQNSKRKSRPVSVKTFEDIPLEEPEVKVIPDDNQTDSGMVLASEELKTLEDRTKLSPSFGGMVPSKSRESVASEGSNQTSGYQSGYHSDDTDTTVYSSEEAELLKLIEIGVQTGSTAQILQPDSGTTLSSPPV

Usually IC50 stands for the concentration at which inhibition is half-maximal. Low readings indicate greater potency, high ones weaker potency. The molecule `CC(=O)N1CCN(CCNC(=O)c2cnc(C)c(NC(=O)c3cnn4cc(-c5cnn(C)c5)sc34)c2)CC1` [Example 129, N-(5-((2-(4-acetylpiperazin-1-yl)ethyl)carbamoyl)-2-methylpyridin-3-yl)-2-(1-methyl-1H-pyrazol-4-yl)pyrazolo[5,1-b]thiazole-7-carboxamide] displayed an IC50 of more than 7.5 µM. `Cc1ncc(C(=O)NCCN2CCCC2(C)C)cc1NC(=O)c1cnn2cc(-c3cncnc3)sc12` [Example 139, N-(5-((2-(2,2-dimethylpyrrolidin-1-yl)ethyl)carbamoyl)-2-methylpyridin-3-yl)-2-(pyrimidin-5-yl)pyrazolo[5,1-b]thiazole-7-carboxamide] came in with an IC50 of more than 7.5 µM. For the molecule `Cc1ncc(C(=O)NCCN2CCCC2(C)C)cc1NC(=O)c1cnn2cc(-c3cnn(CCO)c3)sc12` [Example 140, N-(5-((2-(2,2-dimethylpyrrolidin-1-yl)ethyl)carbamoyl)-2-methylpyridin-3-yl)-2-(1-(2-hydroxyethyl)-1H-pyrazol-4-yl)pyrazolo[5,1-b]thiazole-7-carboxamide], the IC50 was more than 7.5 µM.

The molecule `Cc1ncc(C(=O)NCCN2CCCC2(C)C)cc1NC(=O)c1cnn2cc(-c3ccc(=O)[nH]n3)sc12` [Example 141, N-(5-((2-(2,2-dimethylpyrrolidin-1-yl)ethyl)carbamoyl)-2-methylpyridin-3-yl)-2-(6-oxo-1,6-dihydropyridazin-3-yl)pyrazolo[5,1-b]thiazole-7-carboxamide] gave an IC50 of more than 7.5 µM.

For `COCCn1cc(-c2cn3ncc(C(=O)Nc4cc(C(=O)NCCN5CC6CCC5CC6)cnc4C)c3s2)cn1` [Example 142, N-(5-((2-(2-azabicyclo[2.2.2]octan-2-yl)ethyl)carbamoyl)-2-methylpyridin-3-yl)-2-(1-(2-methoxyethyl)-1H-pyrazol-4-yl)pyrazolo[5,1-b]thiazole-7-carboxamide], the IC50 was more than 7.5 µM. `Cc1ncc(C(=O)NCCN2CC3CCC2CC3)cc1NC(=O)c1cnn2cc(-c3cnn(CS(C)(=O)=O)c3)sc12` [Example 143, N-(5-((2-(2-azabicyclo[2.2.2]octan-2-yl)ethyl)carbamoyl)-2-methylpyridin-3-yl)-2-(1-((methylsulfonyl)methyl)-1H-pyrazol-4-yl)pyrazolo[5,1-b]thiazole-7-carboxamide] showed an IC50 of more than 7.5 µM. As to `Cc1ncc(C(=O)NCCN2CC3CCC2CC3)cc1NC(=O)c1cnn2cc(-c3cnn(C4COC4)c3)sc12` [Example 144, N-(5-((2-(2-azabicyclo[2.2.2]octan-2-yl)ethyl)carbamoyl)-2-methylpyridin-3-yl)-2-(1-(oxetan-3-yl)-1H-pyrazol-4-yl)pyrazolo[5,1-b]thiazole-7-carboxamide], the IC50 was more than 7.5 µM. The molecule `Cc1ncc(C(=O)NCCN2CC3CCC2CC3)cc1NC(=O)c1cnn2cc(-c3ccc4oc(=O)[nH]c4c3)sc12` [Example 145, N-(5-((2-(2-azabicyclo[2.2.2]octan-2-yl)ethyl)carbamoyl)-2-methylpyridin-3-yl)-2-(2-oxo-2,3-dihydrobenzo[d]oxazol-5-yl)pyrazolo[5,1-b]thiazole-7-carboxamide] had an IC50 of more than 0.833 µM. The molecule `CC(=O)Nc1ccnc(-c2cn3ncc(C(=O)Nc4cc(C(=O)NCCN5CC6CCC5CC6)cnc4C)c3s2)c1` [Example 146, N-(5-((2-(2-azabicyclo[2.2.2]octan-2-yl)ethyl)carbamoyl)-2-methylpyridin-3-yl)-2-(4-acetamidopyridin-2-yl)pyrazolo[5,1-b]thiazole-7-carboxamide] returned a 50% inhibitory concentration (IC50) of more than 7.5 µM.

Consider `CC(=O)Nc1cncc(-c2cn3ncc(C(=O)Nc4cc(C(=O)NCCN5CC6CCC5CC6)cnc4C)c3s2)c1` [Example 147, N-(5-((2-(2-azabicyclo[2.2.2]octan-2-yl)ethyl)carbamoyl)-2-methylpyridin-3-yl)-2-(5-acetamidopyridin-3-yl)pyrazolo[5,1-b]thiazole-7-carboxamide], for which the IC50 is more than 7.5 µM. `Cc1ncc(C(=O)NCCN2CC3CCC2CC3)cc1NC(=O)c1cnn2cc(-c3ccncc3)sc12` [Example 148, N-(5-((2-(2-azabicyclo[2.2.2]octan-2-yl)ethyl)carbamoyl)-2-methylpyridin-3-yl)-2-(pyridin-4-yl)pyrazolo[5,1-b]thiazole-7-carboxamide] had an IC50 of more than 7.5 µM.

On to `Cc1ncc(C(=O)NCCN2CC3CCC2CC3)cc1NC(=O)c1cnn2cc(-c3cccnc3)sc12` [Example 149, N-(5-((2-(2-azabicyclo[2.2.2]octan-2-yl)ethyl)carbamoyl)-2-methylpyridin-3-yl)-2-(pyridin-3-yl)pyrazolo[5,1-b]thiazole-7-carboxamide], for which the half-inhibitory concentration (IC50) is more than 7.5 µM. For the molecule `Cc1ncc(C(=O)NCCN2CC3CCC2CC3)cc1NC(=O)c1cnn2cc(-c3cnn(CC(N)=O)c3)sc12` [Example 150, N-(5-((2-(2-azabicyclo[2.2.2]octan-2-yl)ethyl)carbamoyl)-2-methylpyridin-3-yl)-2-(1-(2-amino-2-oxoethyl)-1H-pyrazol-4-yl)pyrazolo[5,1-b]thiazole-7-carboxamide], the IC50 is more than 7.5 µM. In turn, `Cc1ncc(C(=O)NCCN2CC3CCC2CC3)cc1NC(=O)c1cnn2cc(-c3cnn(CC#N)c3)sc12` [Example 151, N-(5-((2-(2-azabicyclo[2.2.2]octan-2-yl)ethyl)carbamoyl)-2-methylpyridin-3-yl)-2-(1-(cyanomethyl)-1H-pyrazol-4-yl)pyrazolo[5,1-b]thiazole-7-carboxamide] had a concentration for half-maximal inhibition (IC50) of more than 7.5 µM. `Cc1ncc(C(=O)NCCN2CC(F)(F)C2)cc1NC(=O)c1cnn2cc(-c3ccncc3)sc12` [Example 152, N-(5-((2-(3,3-difluoroazetidin-1-yl)ethyl)carbamoyl)-2-methylpyridin-3-yl)-2-(pyridin-4-yl)pyrazolo[5,1-b]thiazole-7-carboxamide]: the IC50 is more than 7.5 µM. For `Cc1ncc(C(=O)NCCN2CCC3(CC3)C2)cc1NC(=O)c1cnn2cc(-c3ccncc3)sc12` [Example 153, N-(5-((2-(5-azaspiro[2.4]heptan-5-yl)ethyl)carbamoyl)-2-methylpyridin-3-yl)-2-(pyridin-4-yl)pyrazolo[5,1-b]thiazole-7-carboxamide], the half-maximal inhibitory concentration (IC50) is more than 7.5 µM.

Consider `Cc1ncc(C(=O)NCCN2CCC(F)(F)CC2)cc1NC(=O)c1cnn2cc(-c3ccncc3)sc12` [Example 154, N-(5-((2-(4,4-difluoropiperidin-1-yl)ethyl)carbamoyl)-2-methylpyridin-3-yl)-2-(pyridin-4-yl)pyrazolo[5,1-b]thiazole-7-carboxamide], for which the IC50 is more than 7.5 µM. `Cc1ncc(C(=O)NCCN2CC(C)(C)C2)cc1NC(=O)c1cnn2cc(-c3ccncc3)sc12` [Example 155, N-(5-((2-(3,3-dimethylazetidin-1-yl)ethyl)carbamoyl)-2-methylpyridin-3-yl)-2-(pyridin-4-yl)pyrazolo[5,1-b]thiazole-7-carboxamide]: the concentration for half-maximal inhibition (IC50) was more than 7.5 µM. Molecule `Cc1ncc(C(=O)NCCN2CCC(C)(C)C2)cc1NC(=O)c1cnn2cc(-c3ccncc3)sc12` [Example 156, N-(5-((2-(3,3-dimethylpyrrolidin-1-yl)ethyl)carbamoyl)-2-methylpyridin-3-yl)-2-(pyridin-4-yl)pyrazolo[5,1-b]thiazole-7-carboxamide] returned an IC50 of more than 7.5 µM. As for `Cc1ncc(C(=O)NCCN2CCC(F)(F)CC2)cc1NC(=O)c1cnn2cc(-c3cccnc3)sc12` [Example 157, N-(5-((2-(4,4-difluoropiperidin-1-yl)ethyl)carbamoyl)-2-methylpyridin-3-yl)-2-(pyridin-3-yl)pyrazolo[5,1-b]thiazole-7-carboxamide], the half-inhibitory concentration (IC50) is more than 7.5 µM. The value for `Cc1ncc(C(=O)NCCN2CC(C)(C)C2)cc1NC(=O)c1cnn2cc(-c3cccnc3)sc12` [Example 158, N-(5-((2-(3,3-dimethylazetidin-1-yl)ethyl)carbamoyl)-2-methylpyridin-3-yl)-2-(pyridin-3-yl)pyrazolo[5,1-b]thiazole-7-carboxamide] was more than 7.5 µM; that for `Cc1ncc(C(=O)NCCN2CCC3(CC3)C2)cc1NC(=O)c1cnn2cc(-c3cccnc3)sc12` [Example 159, N-(5-((2-(5-azaspiro[2.4]heptan-5-yl)ethyl)carbamoyl)-2-methylpyridin-3-yl)-2-(pyridin-3-yl)pyrazolo[5,1-b]thiazole-7-carboxamide] was more than 7.5 µM. Take `Cc1ncc(C(=O)NCCN2CCC3(CC3)C2)cc1NC(=O)c1cnn2cc(-c3ccccn3)sc12` [Example 160, N-(5-((2-(5-azaspiro[2.4]heptan-5-yl)ethyl)carbamoyl)-2-methylpyridin-3-yl)-2-(pyridin-2-yl)pyrazolo[5,1-b]thiazole-7-carboxamide]: the IC50 was more than 7.5 µM. `Cc1ncc(C(=O)NCCN2CC(C)(C)C2)cc1NC(=O)c1cnn2cc(-c3cn(C)cn3)sc12` [Example 161] registered an IC50 of more than 7.5 µM. The molecule `Cc1ncc(C(=O)NCCN2CCC3(CC3)C2)cc1NC(=O)c1cnn2cc(-c3cn(C)cn3)sc12` [Example 162, N-(5-((2-(5-azaspiro[2.4]heptan-5-yl)ethyl)carbamoyl)-2-methylpyridin-3-yl)-2-(1-methyl-1H-imidazol-4-yl)pyrazolo[5,1-b]thiazole-7-carboxamide] displayed an IC50 of more than 7.5 µM. `Cc1ncc(C(=O)NCCN2CCCC2(C)C)cc1NC(=O)c1cnn2cc(-c3cn(C)cn3)sc12` [Example 163, N-(5-((2-(2,2-dimethylpyrrolidin-1-yl)ethyl)carbamoyl)-2-methylpyridin-3-yl)-2-(1-methyl-1H-imidazol-4-yl)pyrazolo[5,1-b]thiazole-7-carboxamide]: the IC50 is more than 7.5 µM.

`COCCn1cc(-c2cn3ncc(C(=O)Nc4cc(C(=O)NCCN5CCC(F)(F)CC5)cnc4C)c3s2)cn1` [Example 165, N-(5-((2-(4,4-difluoropiperidin-1-yl)ethyl)carbamoyl)-2-methylpyridin-3-yl)-2-(1-(2-methoxyethyl)-1H-pyrazol-4-yl)pyrazolo[5,1-b]thiazole-7-carboxamide] gave an IC50 of more than 7.5 µM. `COCCn1cc(-c2cn3ncc(C(=O)Nc4cc(C(=O)NCCN5CC(C)(C)C5)cnc4C)c3s2)cn1` [Example 166, N-(5-((2-(3,3-dimethylazetidin-1-yl)ethyl)carbamoyl)-2-methylpyridin-3-yl)-2-(1-(2-methoxyethyl)-1H-pyrazol-4-yl)pyrazolo[5,1-b]thiazole-7-carboxamide] gave an IC50 of more than 7.5 µM.
